“Also recorded” adds a separate entry of the source.
Tested on: methicillin resistant Staphylococcus aureus strain USA300 (TPPS 1056)
Assay: Staphylococcus aureus-induced murine dermal infection model
Format: in vivo
Settings: female SKH1 mice, topical 10% Nu-3 fatty alcohol-based gel pH 1.5, 4 h after challenge
Method: Female SKH1 mice ordered from Charles River Laboratories are acclimated to housing conditions and handled in accordance with Animal Use Protocol (AUP) number TP-18. The animals are acclimated for a minimum of 24 hours prior to bacterial challenge and are 6-8 weeks old on Day 0 of the experiment. Only animals deemed healthy are included in this study. Animals are fed irradiated Teklad Global Rodent Diet 2918 and water ad libitum. Mice are housed in static cages with irradiated Teklad ⅛″ corn cob bedding 7902 inside bioBubble® Clean Rooms that provide H.E.P.A. filtered air into the bubble environment at 100 complete air changes per hour. All treatments and infectious challenges are carried out in a BSL2 surgical suite. The environment is controlled to a temperature range of 74°±4° F. and a humidity range of 30-70%. […]
Immediately following tape stripping, each animal receives a topical application with approximately 6.0 log10 CFU per mouse in a volume of 100 μL spread in an area approximately 0.75″×0.75″. […] The final CFU count from the challenge suspension determined that 5.6 log10 CFU per mouse is delivered. […]
Following euthanasia, a section of excised skin approximately 0.5″×0.5″ is aseptically removed from the infected/treated area and transferred to vials with 2.0 mL of sterile water and weighed. […] Tissue pH is measured using litmus paper and recorded. […]

## CCCCOP(=O)(O)OC[C@H]1OC(n2cc(C)c(=O)[nH]c2=O)C[C@@H]1OP(=O)(O)OCCCC (stereo partly drawn) [Nu-3, (2R,3S)-2-((butoxy(hydroxy)phosphoryl)oxy)methyl)-5-(5-methyl-2,4-dioxo-3,4-dihydropyrimidin-1(2H)-yl)tetrahydrofuran-2-yl) butyl hydrogen phosphate]
5 and 12 hours post-challenge
  CFU burden compared to untreated control animals: significant decreases; also recorded: significantly decreases
All harvest time points
  CFU burden compared to vehicle-treated animals: significant decreases; also recorded: significantly decreases

Reference: patent US12156883B2, “Bisphosphocin gel formulations and uses thereof” (Lakewood Amedex, Inc., priority 2017, dated 2024)
